From US7582639B2, “N-deacetylthiocolchicine derivatives, their use and pharmaceutical formulations containing them” (priority 2004, dated 2009)
Where two headings read alike, the source gives them in different places.

How the values were obtained:
Experiment in all cases: cells
Assay type in all cases: cell-based
[1] = system: A2780/pt (resistant to tocisplatin); settings: after 72 hours, concentration that inhibits cell growth by 50% compared with non treated cells, read-out: IC50 (nM) ± S.E. A2780/pt (resistant to tocisplatin)
Experimental: (§1) The activity of the compounds of formula I was evaluated on a large number of tumour cells expressing different resistance.
(§2) Cytotoxic activity was evaluated according to the procedure described by M. C.

MCF7-R (MDR+) = settings: after 72 hours, concentration that inhibits cell growth by 50% compared with non treated cells, read-out: IC50 (nM) ± S.E. MCF7-R (MDR+)
Experimental: as §1, §2

Widr (colon) = settings: after 72 hours, concentration that inhibits cell growth by 50% compared with non treated cells, read-out: IC50 (nM) ± S.E. Widr (colon)
Experimental: as §1, §2

[2] = system: A2780/top (resistant to topotecan); settings: after 72 hours, concentration that inhibits cell growth by 50% compared with non treated cells, read-out: IC50 (nM) ± S.E. A2780/top (resistant to topotecan)
Experimental: as §1, §2

MCF7 (breast) = settings: after 72 hours, concentration that inhibits cell growth by 50% compared with non treated cells, read-out: IC50 (nM) ± S.E. MCF7 (breast)
Experimental: as §1, §2

A2780 (Ovarian) = settings: after 72 hours, concentration that inhibits cell growth by 50% compared with non treated cells, read-out: IC50 (nM) ± S.E. A2780 (Ovarian)
Experimental: as §1, §2

A2780/dx (Pgp+) = settings: after 72 hours, concentration that inhibits cell growth by 50% compared with non treated cells, read-out: IC50 (nM) ± S.E. A2780/dx (Pgp+)
Experimental: as §1, §2

| Compound | IC50 [1] | IC50 (MCF7-R (MDR+)) | IC50 (Widr (colon)) | IC50 [2] | IC50 (MCF7 (breast)) | IC50 (A2780 (Ovarian)) | IC50 ([1]; Homo sapiens, A2780) | IC50 (A2780/dx (Pgp+)) | IC50 (MCF7-R (MDR+); Homo sapiens, MCF7R) | IC50 (Widr (colon); Homo sapiens, WiDr) | IC50 ([2]; Homo sapiens, A2780) | IC50 (MCF7 (breast); Homo sapiens, MCF7) | IC50 (A2780 (Ovarian); Homo sapiens, A2780) |
| --- | --- | --- | --- | --- | --- | --- | --- | --- | --- | --- | --- | --- | --- |
| 3,5-Benzenedicarboxylic acid bis-(N-deacetylthiocolchicine)amide [E.g. 3] | 23 ± 4.6 nM | 108 ± 14 nM | 48 ± 24 nM | 5.5 ± 0.1 nM | 1.5 ± 0.1 nM | 8 ± 5.6 nM | – | – | – | – | – | – | – |
| N-Deacetylthiocolchicine 1,4-phenylenediamine bis-urea [E.g. 4] | 331 ± 63 nM | – | 650 ± 40 nM | 152 ± 36 nM | – | 252 ± 38 nM | – | – | – | – | – | – | – |
| COc1cc2c(c(OC)c1OC)-c1ccc(SC)c(=O)cc1[C@@H](NC(=O)c1cncc(C(=O)N[C@H]3CCc4cc(OC)c(OC)c(OC)c4-c4ccc(SC)c(=O)cc43)c1)CC2 [E.g. 1, 3,5-Pyridinedicarboxylic acid bis-(N-deacetylthiocolchicine)amide] | – | – | – | – | – | – | 3.7 ± 0.6 nM | 806 ± 286 nM | 72 ± 4.3 nM | 25 ± 26.4 nM | 6.9 ± 4.2 nM | 0.7 ± 0.1 nM | 3 ± 0.4 nM |
| trans-1,4-Cyclohexanedicarboxylic acid bis-(N-deacetylthiocolchicine)amide [E.g. 2] | 26 ± 1 nM | 135 ± 11 nM | 230 ± 166 nM | 32 ± 24 nM | 14 ± 0.9 nM | 37 ± 5 nM | – | – | – | – | – | – | – |
